Laboratory results from patent publication US5486516A, “Furopyrimidine derivatives” (DowElanco, priority 1993, dated 1996).

tested on: Pyricularia oryzae (rice blast); experiment: whole plant or invertebrate; format: in vivo; details: foliar, read-out: RICE BLAST control rating

| SMILES | pest or weed control at 400 µg/mL |
| --- | --- |
| COc1ccc(CCNc2ncnc3occc23)cc1 [Example 15, N-[2-(4-methyloxyphenyl)ethyl]furo[2,3-d]pyrimidin-4-amine] | 20 to 89% |
| Cc1oc2ncnc(NCCC3=CCCCC3)c2c1C [Example 72, 5,6-dimethyl-N-[2-(1-cyclohexenyl)ethyl]furo[2,3-d]pyrimidin-4-amine] | 0 to 19% |
| COc1ccc(CCNc2ncnc3oc(C)cc23)cc1 [Example 4, N-(2-(4-methoxyphenyl)ethyl]-6-methylfuro(2,3-d]pyrimidin-4-amine] | 20 to 89% |

tested on: Southern corn rootworm (Diabrotica undecimpuctata howardi Barber); experiment: Mite/insect screen, corn rootworm; format: in vivo; details: Diabrotica; CRW rate 12.00 ppm, soil; read-out: CRW results (percent mortality)
Protocol: (§1) The compounds of Examples were tested for miticidal and insecticidal activity in the following mite/insect screen.
(§2) Each test compound was formulated by dissolving the compound in acetone/alcohol (50:50) mixture containing 23 g of "TOXIMUL R" (sulfonate/nonionic emulsifier blend) and 13 g of "TOXIMUL S" (sulfonate/nonionic emulsifier blend) per liter. These mixtures were then diluted with water to give the indicated concentrations.
Activity on Southern corn rootworm (Diabrotica undecimpuctata howardi Barber) was evaluated by adding two ml of tap water, a presoaked corn seed, and 15 g of dry sandy soil to a one ounce plastic container. The soil was treated with 1 mL of test solution containing a predetermined concentration of test compound. After six to 12 hours of drying, five 2-3 instar corn rootworm larvae were added to the individual cups, which were then capped and held at 23° C.
(§3) After standard exposure periods, percent mortality and phytotoxicity were evaluated. […] The following abbreviations are used in Table 3:
CRW refers to corn rootworm

| SMILES | mortality at 12 ppm |
| --- | --- |
| COc1ccc(CCNc2ncnc3occc23)cc1 [Example 15, N-[2-(4-methyloxyphenyl)ethyl]furo[2,3-d]pyrimidin-4-amine] | 0% |

same assay, conditions: Diabrotica; CRW rate 24.00 ppm, soil; read-out: CRW results (percent mortality)

| SMILES | mortality at 24 ppm |
| --- | --- |
| COc1ccc(CCNc2ncnc3occc23)cc1 [Example 15, N-[2-(4-methyloxyphenyl)ethyl]furo[2,3-d]pyrimidin-4-amine] | 0% |
| Cc1oc2ncnc(NCCC3=CCCCC3)c2c1C [Example 72, 5,6-dimethyl-N-[2-(1-cyclohexenyl)ethyl]furo[2,3-d]pyrimidin-4-amine] | 0% |
| COc1ccc(CCNc2ncnc3oc(C)cc23)cc1 [Example 4, N-(2-(4-methoxyphenyl)ethyl]-6-methylfuro(2,3-d]pyrimidin-4-amine] | 0% |

tested on: southern armyworm (Spodopetra eridania Cramer); experiment: Mite/insect screen, Southern armyworm; format: in vivo; details: Spodoptera eridania; rate 200 ppm, sprayed leaves; read-out: SAW results (percent mortality)
Protocol: as §1, §2
(§4) Twospotted spider mites (Tetranychus urticae Koch) and melon aphids (Aphis gossvpii Glover) were introduced on squash cotyledons and allowed to establish on both leaf surfaces. Other plants in the same treatment pot were left uninfested. The leaves were then sprayed with 5 ml of test solution using a DeVilbiss atomizing sprayer at 10 psi. Both surfaces of the leaves were covered until runoff, and then allowed to dry for one hour. Two uninfested leaves were then excised and placed into a Petri dish containing larval southern armyworm (Spodopetra eridania Cramer).
as §3
SAW refers to Southern armyworm

| SMILES | mortality at 200 ppm |
| --- | --- |
| COc1ccc(CCNc2ncnc3occc23)cc1 [Example 15, N-[2-(4-methyloxyphenyl)ethyl]furo[2,3-d]pyrimidin-4-amine] | 0% |

same assay, conditions: Spodoptera eridania; rate 400 ppm, sprayed leaves; read-out: SAW results (percent mortality)

| SMILES | mortality at 400 ppm |
| --- | --- |
| COc1ccc(CCNc2ncnc3occc23)cc1 [Example 15, N-[2-(4-methyloxyphenyl)ethyl]furo[2,3-d]pyrimidin-4-amine] | 0% |
| Cc1oc2ncnc(NCCC3=CCCCC3)c2c1C [Example 72, 5,6-dimethyl-N-[2-(1-cyclohexenyl)ethyl]furo[2,3-d]pyrimidin-4-amine] | 60% |
| COc1ccc(CCNc2ncnc3oc(C)cc23)cc1 [Example 4, N-(2-(4-methoxyphenyl)ethyl]-6-methylfuro(2,3-d]pyrimidin-4-amine] | 0% |

tested on: Twospotted spider mites (Tetranychus urticae Koch); experiment: Mite/insect screen, twospotted spider mites; format: in vivo; details: Tetranychus urticae, rate 200 ppm, sprayed leaves; read-out: SM results (percent mortality)
Protocol: as §1, §2, §4, §3
SM refers to twospotted spider mites

| SMILES | mortality at 200 ppm |
| --- | --- |
| COc1ccc(CCNc2ncnc3occc23)cc1 [Example 15, N-[2-(4-methyloxyphenyl)ethyl]furo[2,3-d]pyrimidin-4-amine] | 0% |

same assay, conditions: Tetranychus urticae, rate 400 ppm, sprayed leaves; read-out: SM results (percent mortality)

| SMILES | mortality at 400 ppm |
| --- | --- |
| COc1ccc(CCNc2ncnc3occc23)cc1 [Example 15, N-[2-(4-methyloxyphenyl)ethyl]furo[2,3-d]pyrimidin-4-amine] | 0% |
| Cc1oc2ncnc(NCCC3=CCCCC3)c2c1C [Example 72, 5,6-dimethyl-N-[2-(1-cyclohexenyl)ethyl]furo[2,3-d]pyrimidin-4-amine] | 0% |
| COc1ccc(CCNc2ncnc3oc(C)cc23)cc1 [Example 4, N-(2-(4-methoxyphenyl)ethyl]-6-methylfuro(2,3-d]pyrimidin-4-amine] | 0% |

tested on: melon aphids (Aphis gossvpii Glover); experiment: Mite/insect screen, melon aphids; format: in vivo; details: Aphis; rate 200 ppm, sprayed leaves; read-out: MA results (percent mortality)
Protocol: as §1, §2, §4, §3
MA refers to melon aphids.

| SMILES | mortality at 200 ppm |
| --- | --- |
| COc1ccc(CCNc2ncnc3occc23)cc1 [Example 15, N-[2-(4-methyloxyphenyl)ethyl]furo[2,3-d]pyrimidin-4-amine] | 0% |

same assay, conditions: Aphis; rate 400 ppm, sprayed leaves; read-out: MA results (percent mortality)

| SMILES | mortality at 400 ppm |
| --- | --- |
| COc1ccc(CCNc2ncnc3occc23)cc1 [Example 15, N-[2-(4-methyloxyphenyl)ethyl]furo[2,3-d]pyrimidin-4-amine] | 0% |
| Cc1oc2ncnc(NCCC3=CCCCC3)c2c1C [Example 72, 5,6-dimethyl-N-[2-(1-cyclohexenyl)ethyl]furo[2,3-d]pyrimidin-4-amine] | 100% |
| COc1ccc(CCNc2ncnc3oc(C)cc23)cc1 [Example 4, N-(2-(4-methoxyphenyl)ethyl]-6-methylfuro(2,3-d]pyrimidin-4-amine] | 0% |

tested on: Puccinia recondita tritici (leaf rust); experiment: Plant pathology screen (Test 1), leaf rust on wheat; details: in Triticum aestivum, foliar, read-out: LEAF RUST control rating

| SMILES | pest or weed control at 400 µg/mL |
| --- | --- |
| COc1ccc(CCNc2ncnc3occc23)cc1 [Example 15, N-[2-(4-methyloxyphenyl)ethyl]furo[2,3-d]pyrimidin-4-amine] | 90 to 100% |
| Cc1oc2ncnc(NCCC3=CCCCC3)c2c1C [Example 72, 5,6-dimethyl-N-[2-(1-cyclohexenyl)ethyl]furo[2,3-d]pyrimidin-4-amine] | 90 to 100% |
| COc1ccc(CCNc2ncnc3oc(C)cc23)cc1 [Example 4, N-(2-(4-methoxyphenyl)ethyl]-6-methylfuro(2,3-d]pyrimidin-4-amine] | 90 to 100% |

tested on: Pseudoperonospora cubensis (downy mildew); experiment: Plant pathology screen (Test 1), downy mildew on squash; details: foliar, read-out: DOWN MDEW control rating
Protocol: (§5) The test compounds were formulated for application by dissolving 50 mg of the compound into 1.25 ml of solvent. The solvent was prepared by mixing 50 ml of "Tween 20" (polyoxyethylene (20) sorbitan monolaurate emulsifier) with 475 ml of acetone and 475 ml of ethanol. The solvent/compound solution was diluted to 125 ml with deionized water. The resulting formulation contains 400 ppm test chemical. Lower concentrations were obtained by serial dilution with the solvent-surfactant mixture.
(§6) The formulated test compounds were applied by foliar spray. The following plant pathogens and their corresponding plants were employed.
(§7) The formulated technical compounds were sprayed on all foliar surfaces of the host plants (or cut berry) to past run-off. Single pots of each host plant were placed on raised, revolving pedestals in a fume hood. Test solutions were sprayed on all foliar surfaces. All treatments were allowed to dry and the plants were inoculated with the appropriate pathogens within 2-4 hours.
(§8) The effectiveness of test compounds in controlling disease was rated using the following scale.

| SMILES | pest or weed control at 400 µg/mL |
| --- | --- |
| COc1ccc(CCNc2ncnc3occc23)cc1 [Example 15, N-[2-(4-methyloxyphenyl)ethyl]furo[2,3-d]pyrimidin-4-amine] | 90 to 100% |
| Cc1oc2ncnc(NCCC3=CCCCC3)c2c1C [Example 72, 5,6-dimethyl-N-[2-(1-cyclohexenyl)ethyl]furo[2,3-d]pyrimidin-4-amine] | 90 to 100% |
| COc1ccc(CCNc2ncnc3oc(C)cc23)cc1 [Example 4, N-(2-(4-methoxyphenyl)ethyl]-6-methylfuro(2,3-d]pyrimidin-4-amine] | 0 to 19% |

tested on: Erysiphe graminis tritici (powdery mildew); experiment: Plant pathology screen (Test 1), powdery mildew on wheat; details: Blumeria graminis, in Triticum aestivum, foliar, read-out: POWD MDEW control rating
Protocol: as §5
The formulated test compounds were applied by foliar spray.
as §7, §8

| SMILES | pest or weed control at 400 µg/mL |
| --- | --- |
| COc1ccc(CCNc2ncnc3occc23)cc1 [Example 15, N-[2-(4-methyloxyphenyl)ethyl]furo[2,3-d]pyrimidin-4-amine] | 20 to 89% |
| Cc1oc2ncnc(NCCC3=CCCCC3)c2c1C [Example 72, 5,6-dimethyl-N-[2-(1-cyclohexenyl)ethyl]furo[2,3-d]pyrimidin-4-amine] | 20 to 89% |
| COc1ccc(CCNc2ncnc3oc(C)cc23)cc1 [Example 4, N-(2-(4-methoxyphenyl)ethyl]-6-methylfuro(2,3-d]pyrimidin-4-amine] | 0 to 19% |

tested on: Botrytis cinerea (gray mold); experiment: Plant pathology screen (Test 1), gray mold on grape berries; details: read-out: GRAY MOLD control rating
Protocol: This screen was used to evaluate the efficacy of the present compounds against a variety of different organisms that cause plant diseases.
as §5, §6, §7, §8

| SMILES | pest or weed control at 400 µg/mL |
| --- | --- |
| COc1ccc(CCNc2ncnc3occc23)cc1 [Example 15, N-[2-(4-methyloxyphenyl)ethyl]furo[2,3-d]pyrimidin-4-amine] | 0 to 19% |
| Cc1oc2ncnc(NCCC3=CCCCC3)c2c1C [Example 72, 5,6-dimethyl-N-[2-(1-cyclohexenyl)ethyl]furo[2,3-d]pyrimidin-4-amine] | 0 to 19% |
| COc1ccc(CCNc2ncnc3oc(C)cc23)cc1 [Example 4, N-(2-(4-methoxyphenyl)ethyl]-6-methylfuro(2,3-d]pyrimidin-4-amine] | 0 to 19% |
